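Five concentrations, 48 hours, 96-well plates. GI50 marks 50% less growth.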 Activity calls are given as the source filed them. Rule as the data show it: active = GI50 up to about 1.1 µM and inactive = higher.
What was measured:
Assay in all cases: DTP human tumour cell line panel, 48 h
UO-31 = test system: UO-31
SNB-75 = test system: SNB-75
SW-620 = test system: SW-620
LOX IMVI = test system: LOX IMVI
CAKI-1 = test system: CAKI-1
KM12 = test system: KM12
ACHN = test system: ACHN
HL-60 = test system: HL-60
M14 = test system: M14
HOP-92 = test system: HOP-92
OVCAR-4 = test system: OVCAR-4
SN12C = test system: SN12C
SF-295 = test system: SF-295
786-0 = test system: 786-0
SF-539 = test system: SF-539
SR = test system: SR

Measured: GI50

C[Si](C)(C)c1ccc(CC2(Cc3ccc([Si](C)(C)C)cc3)CCNC2)cc1
inactive: UO-31 2.48 µM | SNB-75 3.24 µM | SW-620 1.86 µM | LOX IMVI 1.8 µM | CAKI-1 2.39 µM | KM12 1.99 µM | ACHN 3.18 µM | HL-60 7.18 µM | M14 1.76 µM | HOP-92 1.74 µM | OVCAR-4 2.1 µM | SN12C 1.71 µM | SF-295 2.52 µM | 786-0 1.77 µM | SF-539 3.34 µM

CC(=O)N/N=C1\CC(C)(C)C2CCC1C2 (stereo not drawn)
inactive: UO-31 > 100 µM | SNB-75 > 100 µM | SW-620 > 100 µM | LOX IMVI > 100 µM | CAKI-1 > 100 µM | KM12 > 100 µM | ACHN > 100 µM | HL-60 > 100 µM | M14 > 100 µM | HOP-92 > 100 µM | OVCAR-4 > 100 µM | SN12C > 100 µM | SF-295 > 100 µM | 786-0 > 100 µM | SF-539 > 100 µM

CN(C)C(=O)OC(Cn1cncn1)c1ccc(Cl)cc1Cl (stereo not drawn)
inactive: UO-31 > 100 µM | SNB-75 > 100 µM | SW-620 > 100 µM | LOX IMVI > 100 µM | CAKI-1 > 100 µM | KM12 > 100 µM | ACHN > 100 µM | HL-60 > 100 µM | M14 > 100 µM | HOP-92 > 100 µM | OVCAR-4 > 100 µM | SN12C > 100 µM | SF-295 > 100 µM | 786-0 > 100 µM | SF-539 > 100 µM

N#CCCN(c1ccc(/C=N/c2ccccc2)cc1)S(=O)(=O)c1ccccc1
inactive: SR > 100 µM | UO-31 17 µM | SNB-75 > 100 µM | SW-620 > 100 µM | CAKI-1 > 100 µM | KM12 16.5 µM | HL-60 31.1 µM | M14 8.93 µM | HOP-92 > 100 µM | OVCAR-4 > 100 µM | SN12C > 100 µM | SF-295 12.4 µM | 786-0 > 100 µM | SF-539 > 100 µM

COc1cccc(C2=NC(C(C)C)CO2)c1 (stereo not drawn)
inactive: UO-31 85.7 µM | SNB-75 > 100 µM | SW-620 > 100 µM | LOX IMVI > 100 µM | CAKI-1 > 100 µM | KM12 > 100 µM | ACHN > 100 µM | HL-60 > 100 µM | M14 > 100 µM | OVCAR-4 > 100 µM | SN12C > 100 µM | SF-295 > 100 µM | 786-0 > 100 µM | SF-539 > 100 µM

O=S(=O)(c1ccccc1)C1CN2OC1(S(=O)(=O)c1ccccc1)CC2c1ccc(Br)cc1 (stereo not drawn)
inactive: UO-31 37.9 µM | SNB-75 5.21 µM | SW-620 > 100 µM | LOX IMVI 92 µM | CAKI-1 60 µM | KM12 > 100 µM | ACHN 45.4 µM | HL-60 > 100 µM | M14 > 100 µM | HOP-92 66.2 µM | OVCAR-4 15.4 µM | SN12C > 100 µM | SF-295 31.8 µM | 786-0 38.1 µM | SF-539 17.7 µM

Cc1nn(-c2nc3ccccc3s2)c2c1C(=O)c1ccccc1-2
inactive: SR > 100 µM | UO-31 > 100 µM | SNB-75 > 100 µM | SW-620 > 100 µM | LOX IMVI > 100 µM | KM12 > 100 µM | ACHN > 100 µM | HL-60 > 100 µM | M14 > 100 µM | HOP-92 89.3 µM | OVCAR-4 26.9 µM | SN12C > 100 µM | SF-295 > 100 µM | 786-0 80.4 µM | SF-539 > 100 µM

COC1OC(C)C(OC(=O)C(C)(C)C)C(OS(=O)(=O)c2ccc(C)cc2)C1OS(=O)(=O)c1ccc(C)cc1 (stereo not drawn)
inactive: SR 15.4 µM | UO-31 > 100 µM | SNB-75 77.8 µM | SW-620 > 100 µM | CAKI-1 5.9 µM | KM12 > 100 µM | ACHN > 100 µM | HL-60 > 100 µM | M14 > 100 µM | OVCAR-4 > 100 µM | SN12C > 100 µM | SF-295 > 100 µM | 786-0 > 100 µM | SF-539 > 100 µM

COc1ccc2c(c1OC)C(=O)C2
inactive: SR > 100 µM | UO-31 > 100 µM | SNB-75 > 100 µM | SW-620 > 100 µM | LOX IMVI > 100 µM | KM12 > 100 µM | ACHN > 100 µM | HL-60 > 100 µM | M14 > 100 µM | OVCAR-4 > 100 µM | SN12C > 100 µM | SF-295 > 100 µM | 786-0 > 100 µM

CCCCCCCCCCCCCC(=S)N/C=C/OC
inactive: UO-31 31 µM | SNB-75 33.7 µM | SW-620 35.5 µM | LOX IMVI 20.5 µM | KM12 28.2 µM | ACHN 27.5 µM | HL-60 16.1 µM | M14 35.3 µM | HOP-92 25.8 µM | OVCAR-4 32.1 µM | SN12C 34.9 µM | SF-295 30.2 µM | 786-0 30.8 µM | SF-539 66.5 µM

NC(=O)N1N=C2c3ccccc3CC[C@@H]2C1c1ccccc1 (stereo partly drawn)
inactive: UO-31 > 100 µM | SNB-75 36.6 µM | SW-620 > 100 µM | LOX IMVI > 100 µM | CAKI-1 > 100 µM | KM12 > 100 µM | ACHN > 100 µM | HL-60 42.9 µM | M14 > 100 µM | SN12C > 100 µM | SF-295 > 100 µM | 786-0 > 100 µM | SF-539 > 100 µM

COc1ccc(/C=C/c2cc(OC)c(O[Si](C)(C)C(C)(C)C)c(OC)c2)cc1
inactive: SR > 10 µM | UO-31 > 100 µM | SNB-75 84.7 µM | SW-620 > 100 µM | CAKI-1 > 100 µM | KM12 > 100 µM | ACHN > 100 µM | M14 > 100 µM | HOP-92 29.9 µM | OVCAR-4 49.9 µM | SN12C > 100 µM | 786-0 > 100 µM | SF-539 > 100 µM

COC1(C)CC2N(C(=O)c3ccccc3)N=C(c3ccccc3)CC2(C)O1 (stereo not drawn)
inactive: UO-31 > 100 µM | SNB-75 > 100 µM | SW-620 > 100 µM | LOX IMVI > 100 µM | CAKI-1 > 100 µM | KM12 > 100 µM | ACHN > 100 µM | HL-60 > 100 µM | M14 > 100 µM | HOP-92 > 100 µM | OVCAR-4 > 100 µM | SN12C > 100 µM | SF-295 > 100 µM | 786-0 > 100 µM | SF-539 > 100 µM

COc1ccc(/C=C2\CN(C)Cc3c2nc(N)nc3-c2ccc(OC)cc2)cc1
inactive: UO-31 > 100 µM | SNB-75 > 100 µM | SW-620 57.4 µM | LOX IMVI 79.4 µM | CAKI-1 > 100 µM | KM12 61.2 µM | ACHN > 100 µM | HL-60 28.7 µM | M14 69.3 µM | SN12C > 100 µM | SF-295 > 100 µM | 786-0 > 100 µM | SF-539 > 100 µM

Source: ChEMBL document CHEMBL1201862, “PubChem BioAssay data set” (2004)
